According to the supplement of paper PMC10307832:

How the values were obtained:
Test in all cases: relative viability (nuclei count vs DMSO), 5 days (fraction); higher = more cells survive
RU-SKI 43 = compound: CC[C@@H](C)CNCC(=O)N1CCC2=C([C@@H]1COC3=CC=CC(=C3)C)C=CS2 [RU-SKI 43]
Summary of the method: (§1)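 Nuclei counted with MetaXpress define viability as the ratio of treated to vehicle wells, given as a median across plates. The lung cancer cell lines were in 1536-well plates, pinned with five √10-spaced library-drug doses and imaged at 4× after 5 days and Hoechst staining. Plates passed with control CV below 25% and at least one doubling.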

Irinotecan = compound: CCc1c2c(nc3ccc(OC(=O)N4CCC(N5CCCCC5)CC4)cc13)-c1cc3c(c(=O)n1C2)COC(=O)[C@]3(O)CC [Irinotecan]
Summary of the method: as §1

MK-8033 = compound: Cn1cc(-c2cnc3ccc4ccc(CS(=O)(=O)NCc5ccccn5)cc4c(=O)c3c2)cn1 [MK-8033]
Summary of the method: as §1

Cell Line	relative viability (RU-SKI 43; 0.1 µM)	relative viability (RU-SKI 43; 0.3162 µM)	relative viability (RU-SKI 43; 1 µM)	relative viability (RU-SKI 43; 3.162 µM)	relative viability (RU-SKI 43; 10 µM)	relative viability (Irinotecan; 0.6325 µM)	relative viability (Irinotecan; 2 µM)	relative viability (Irinotecan; 6.325 µM)	relative viability (Irinotecan; 20 µM)	relative viability (MK-8033; 0.02 µM)	relative viability (MK-8033; 0.06325 µM)	relative viability (MK-8033; 0.2 µM)	relative viability (MK-8033; 0.6325 µM)	relative viability (MK-8033; 2 µM)
Calu-6	0.948	1.21	1.07	1.08	0.966	0.724	0.59	0.247	0.133	1.02	0.906	0.923	1.06	1
SK-LU-1	0.953	1.29	1.11	1.15	1.05	0.719	0.575	0.358	0.276	1.05	1.05	0.878	0.997	1.04
NCI-H1793	0.986	0.939	1	0.894	0.755		0.905	0.463	0.227	0.935		0.761	0.792	0.8
H3255	1.02	0.995	1.11	0.995	0.885	0.743	0.684	0.392	0.379	1.06	0.853	0.942	0.794	0.942
NCI-H1666	0.953	0.954	0.967	1.04	0.865	0.889	0.763	0.573	0.459	0.984	0.94	0.945	0.947	0.96
201T	1.03	0.973	1.08	1.05	0.981		0.996	0.467	0.33	0.967	0.974	0.9	0.976	0.963
LK-2	1.09	1.13	1.31	1.22	1.06	1.04	0.956	0.486	0.282	0.992	0.885	0.92	1.01	1.09
NCI-H1755	1.03	1.03	1.1	1.1	1	0.966	0.984	0.433	0.408	0.982	1.02	0.945	0.973	0.974
